Reference: patent publication US8735364B2, “Antisense modulation of apolipoprotein B expression” (Genzyme Corporation, priority 2001, dated 2014)
Oligonucleotides are written 5' to 3', each unit as a sugar letter and its base; * is a phosphorothioate linkage, no mark a phosphodiester; rarer units and linkages stand in square brackets, end groups in braces. Plain capitals give the bases only. e = 2'-O-(2-methoxyethyl) (MOE); [5mC] = 5-methylcytosine; d = 2'-deoxy (DNA)

What was measured:
[1] = test system: human apolipoprotein B mRNA; experiment: Inhibition of human apolipoprotein B mRNA levels in HepG2 cells, quantitative real-time PCR; assay type: cell-based; parameters: %INHIB of human apolipoprotein B mRNA levels: concentration or dose not given beside the values; details: for %INHIB of human apolipoprotein B mRNA levels: averages from two experiments
Experimental: The human hepatoblastoma cell line HepG2 was obtained from the American Type Culture Collection (Manassas, Va.). HepG2 cells were routinely cultured in Eagle's MEM supplemented with 10% fetal calf serum, non-essential amino acids, and 1 mM sodium pyruvate (Gibco/Life Technologies, Gaithersburg, Md.). Cells were routinely passaged by trypsinization and dilution when they reached 90% confluence. Cells were seeded into 96-well plates (Falcon-Primaria #3872) at a density of 7000 cells/well for use in RT-PCR analysis.
(§1) When cells reached 80% confluency, they were treated with oligonucleotide. For cells grown in 96-well plates, wells were washed once with 200 μL OPTI-MEM™-1 reduced-serum medium (Gibco BRL) and then treated with 130 μL of OPTI-MEM™-1 containing 3.75 μg/mL LIPOFECTIN™ (Gibco BRL) and the desired concentration of oligonucleotide. After 4-7 hours of treatment, the medium was replaced with fresh medium. Cells were harvested 16-24 hours after oligonucleotide treatment.
(§2) Quantitation of apolipoprotein B mRNA levels was determined by real-time quantitative PCR using the ABI PRISM™ 7700 Sequence Detection System (PE-Applied Biosystems, Foster City, Calif.) according to manufacturer's instructions. This is a closed-tube, non-gel-based, fluorescence detection system which allows high-throughput quantitation of polymerase chain reaction (PCR) products in real-time. As opposed to standard PCR, in which amplification products are quantitated after the PCR is completed, products in real-time quantitative PCR are quantitated as they accumulate. This is accomplished by including in the PCR reaction an oligonucleotide probe that anneals specifically between the forward and reverse PCR primers, and contains two fluorescent dyes. A reporter dye (e.g., JOE, FAM, or VIC, obtained from either Operon Technologies Inc., Alameda, Calif. or PE-Applied Biosystems, Foster City, Calif.) is attached to the 5′ end of the probe and a quencher dye (e.g., TAMRA, obtained from either Operon Technologies Inc., Alameda, Calif. or PE-Applied Biosystems, Foster City, Calif.) is attached to the 3′ end of the probe. When the probe and dyes are intact, reporter dye emission is quenched by the proximity of the 3′ quencher dye. During amplification, annealing of the probe to the target sequence creates a substrate that can be cleaved by the 5′-exonuclease activity of Taq polymerase. […] With each cycle, additional reporter dye molecules are cleaved from their respective probes, and the fluorescence intensity is monitored at regular intervals by laser optics built into the ABI PRISM™ 7700 Sequence Detection System. In each assay, a series of parallel reactions containing serial dilutions of mRNA from untreated control samples generates a standard curve that is used to quantitate the percent inhibition after antisense oligonucleotide treatment of test samples.
(§3) PCR reagents were obtained from PE-Applied Biosystems, Foster City, Calif. RT-PCR reactions were carried out by adding 25 μL PCR cocktail (1× TAQMAN™ buffer A, 5.5 mM MgCl2, 300 μM each of DATP, dCTP and dGTP, 600 μM of dUTP, 100 nM each of forward primer, reverse primer, and probe, 20 Units RNAse inhibitor, 1.25 Units AMPLITAQ GOLD™, and 12.5 Units MuLV reverse transcriptase) to 96 well plates containing 25 μL total RNA solution. The RT reaction was carried out by incubation for 30 minutes at 48° C. Following a 10 minute incubation at 95° C. to activate the AMPLITAQ GOLD™, 40 cycles of a two-step PCR protocol were carried out: 95° C. for 15 seconds (denaturation) followed by 60° C. for 1.5 minutes (annealing/extension).
(§4) Gene target quantities obtained by real time RT-PCR are normalized using either the expression level of GAPDH, a gene whose expression is constant, or by quantifying total RNA using RiboGreen™ (Molecular Probes, Inc. Eugene, Oreg.). GAPDH expression is quantified by real time RT-PCR, by being run simultaneously with the target, multiplexing, or separately. […]

[2] = test system: mouse apolipoprotein B mRNA; experiment: Inhibition of mouse apolipoprotein B mRNA levels in primary hepatocytes, quantitative real-time PCR; assay type: cell-based; parameters: %INHIB of mouse apolipoprotein B mRNA levels: concentration or dose not given beside the values; details: for %INHIB of mouse apolipoprotein B mRNA levels: averages from two experiments
Experimental: Primary mouse hepatocytes were prepared from CD-1 mice purchased from Charles River Labs (Wilmington, Mass.) and were routinely cultured in Hepatoyte Attachment Media (Gibco) supplemented with 10% Fetal Bovine Serum (Gibco/Life Technologies, Gaithersburg, Md.), 250 nM dexamethasone (Sigma), and 10 nM bovine insulin (Sigma). Cells were seeded into 96-well plates (Falcon-Primaria #3872) at a density of 10000 cells/well for use in RT-PCR analysis.
as §1, §2, §3
as §4, with “separately. Total RNA is quantified using RiboGreen™ RNA quantification reagent from Molecular Probes.” for “separately.”

## 147820 (antisense eG*eA*eA*e[5mC]*eA*d[5mC]*dA*dT*dA*dG*d[5mC]*d[5mC]*dG*dA*dA*eT*eG*e[5mC]*e[5mC]*eG) [compound 147820]
[1]; 50 nM
  Percent Inhibition of human apolipoprotein B mRNA levels: 10%
[1]; 150 nM
  Percent Inhibition of human apolipoprotein B mRNA levels: 0%
[1]; 250 nM
  Percent Inhibition of human apolipoprotein B mRNA levels: 73%
[1]
  %INHIB of human apolipoprotein B mRNA levels: 100%

## 147780 (antisense e[5mC]*e[5mC]*eG*e[5mC]*eA*dG*dG*dT*d[5mC]*d[5mC]*d[5mC]*dG*dG*dT*dG*eG*eG*eA*eA*eT) [compound 147780]
[1]
  %INHIB of human apolipoprotein B mRNA levels: 40%

## 147829 (antisense eT*eA*eT*eA*eT*d[5mC]*d[5mC]*d[5mC]*dA*dG*dG*dT*dT*dT*d[5mC]*e[5mC]*e[5mC]*e[5mC]*eG*eG) [compound 147829]
[1]
  %INHIB of human apolipoprotein B mRNA levels: 64%

## 147792 (antisense eG*eG*eA*e[5mC]*eA*d[5mC]*d[5mC]*dT*d[5mC]*dA*dA*dT*d[5mC]*dA*dG*e[5mC]*eT*eG*eT*eG) [compound 147792]
[1]
  %INHIB of human apolipoprotein B mRNA levels: 26%

## 147796 (antisense eG*e[5mC]*eA*eG*e[5mC]*d[5mC]*dA*dG*dT*d[5mC]*dG*d[5mC]*dT*dT*dA*eT*e[5mC]*eT*e[5mC]*e[5mC]) [compound 147796]
[1]
  %INHIB of human apolipoprotein B mRNA levels: 8%

## 147831 (antisense e[5mC]*eT*eG*e[5mC]*e[5mC]*dT*dA*d[5mC]*dT*dG*d[5mC]*dA*dA*dG*dG*e[5mC]*eT*eG*eG*e[5mC]) [compound 147831]
[1]
  %INHIB of human apolipoprotein B mRNA levels: 0%

## 147815 (antisense eT*eG*eG*e[5mC]*e[5mC]*dT*dA*d[5mC]*d[5mC]*dA*dG*dA*dG*dA*d[5mC]*eA*eG*eG*eT*eA) [compound 147815]
[1]
  %INHIB of human apolipoprotein B mRNA levels: 45%

## 147801 (antisense e[5mC]*eA*eG*eA*e[5mC]*d[5mC]*d[5mC]*dG*dA*d[5mC]*dT*d[5mC]*dG*dT*dG*eG*eA*eA*eG*eA) [compound 147801]
[1]
  %INHIB of human apolipoprotein B mRNA levels: 38%

## 147806 (antisense eA*eT*eG*eT*eG*dG*dT*dA*dA*d[5mC]*dG*dA*dG*d[5mC]*d[5mC]*e[5mC]*eG*eA*eA*eG) [compound 147806]
[1]; 50 nM
  Percent Inhibition of human apolipoprotein B mRNA levels: 23%
[1]; 150 nM
  Percent Inhibition of human apolipoprotein B mRNA levels: 45%
[1]; 250 nM
  Percent Inhibition of human apolipoprotein B mRNA levels: 28%
[1]
  %INHIB of human apolipoprotein B mRNA levels: 100%

## 147810 (antisense eA*eT*eT*eT*e[5mC]*dA*dG*d[5mC]*dA*dT*dA*dT*dG*dA*dG*e[5mC]*e[5mC]*e[5mC]*eA*eT) [compound 147810]
[1]
  %INHIB of human apolipoprotein B mRNA levels: 0%

## 147788 (antisense eT*eT*eT*e[5mC]*eT*dG*dT*dT*dG*d[5mC]*d[5mC]*dA*d[5mC]*dA*dT*eT*eG*e[5mC]*e[5mC]*e[5mC]) [compound 147788]
[1]; 50 nM
  Percent Inhibition of human apolipoprotein B mRNA levels: 54%
[1]; 150 nM
  Percent Inhibition of human apolipoprotein B mRNA levels: 63%
[1]; 250 nM
  Percent Inhibition of human apolipoprotein B mRNA levels: 72%
[1]
  %INHIB of human apolipoprotein B mRNA levels: 95%

## 147785 (antisense eG*e[5mC]*e[5mC]*e[5mC]*eG*d[5mC]*d[5mC]*dA*dG*d[5mC]*dA*dG*d[5mC]*dA*dG*e[5mC]*eA*eG*e[5mC]*eA) [compound 147785]
[1]
  %INHIB of human apolipoprotein B mRNA levels: 29%

## 147781 (antisense eA*e[5mC]*e[5mC]*eG*eA*dG*dA*dA*dG*dG*dG*d[5mC]*dA*d[5mC]*dT*e[5mC]*eA*eG*e[5mC]*e[5mC]) [compound 147781]
[1]
  %INHIB of human apolipoprotein B mRNA levels: 35%

## 147790 (antisense eT*eG*eT*eG*e[5mC]*dT*dA*d[5mC]*d[5mC]*dA*dT*d[5mC]*d[5mC]*d[5mC]*dA*eT*eA*e[5mC]*eT*eT) [compound 147790]
[1]
  %INHIB of human apolipoprotein B mRNA levels: 33%

## 147786 (antisense e[5mC]*eT*eT*eG*eA*dA*dT*d[5mC]*dA*dG*d[5mC]*dA*dG*dT*d[5mC]*e[5mC]*e[5mC]*eA*eG*eG) [compound 147786]
[1]
  %INHIB of human apolipoprotein B mRNA levels: 34%

## 147794 (antisense eG*eT*eA*eA*eT*d[5mC]*dT*dT*d[5mC]*dA*dT*d[5mC]*d[5mC]*d[5mC]*d[5mC]*eA*eG*eT*eG*e[5mC]) [compound 147794]
[1]
  %INHIB of human apolipoprotein B mRNA levels: 47%

## 147825 (antisense eA*eG*eA*eA*eG*d[5mC]*dT*dG*d[5mC]*d[5mC]*dT*d[5mC]*dT*dT*d[5mC]*eT*eT*e[5mC]*e[5mC]*e[5mC]) [compound 147825]
[1]
  %INHIB of human apolipoprotein B mRNA levels: 72%

## 147823 (antisense eT*eG*e[5mC]*e[5mC]*e[5mC]*dT*dG*d[5mC]*dA*dG*d[5mC]*dT*dT*d[5mC]*dA*e[5mC]*eT*eG*eA*eA) [compound 147823]
[1]
  %INHIB of human apolipoprotein B mRNA levels: 19%

## 147807 (antisense eG*eG*e[5mC]*eG*eT*dA*dG*dA*dG*dA*d[5mC]*d[5mC]*d[5mC]*dA*dT*e[5mC]*eA*e[5mC]*eA*eT) [compound 147807]
[1]
  %INHIB of human apolipoprotein B mRNA levels: 25%

## 147759 (antisense eA*eG*eG*eT*eG*dA*dG*dG*dA*dA*dG*dT*dT*dG*dG*eA*eA*eT*eT*e[5mC]) [compound 147759]
[2]
  %INHIB of mouse apolipoprotein B mRNA levels: 19%

## 147764 (antisense eG*eT*e[5mC]*e[5mC]*e[5mC]*dT*dG*dA*dA*dG*dA*dT*dG*dT*d[5mC]*eA*eA*eT*eG*e[5mC]) [compound 147764]
[2]; 50 nM
  Percent Inhibition of mouse apolipoprotein B mRNA levels: 48%
[2]; 150 nM
  Percent Inhibition of mouse apolipoprotein B mRNA levels: 84%
[2]; 300 nM
  Percent Inhibition of mouse apolipoprotein B mRNA levels: 90%
[2]
  %INHIB of mouse apolipoprotein B mRNA levels: 97%

## 147481 (antisense eT*eG*eA*e[5mC]*eT*dG*dT*d[5mC]*dA*dA*dG*dG*dG*dT*dG*eA*eG*e[5mC]*eT*eG) [compound 147481]
[2]
  %INHIB of mouse apolipoprotein B mRNA levels: 24%

## 147769 (antisense e[5mC]*eA*eT*eG*e[5mC]*d[5mC]*dT*dG*dG*dA*dA*dG*d[5mC]*d[5mC]*dA*eG*eT*eG*eT*e[5mC]) [compound 147769]
[2]; 50 nM
  Percent Inhibition of mouse apolipoprotein B mRNA levels: 3%
[2]; 150 nM
  Percent Inhibition of mouse apolipoprotein B mRNA levels: 14%
[2]; 300 nM
  Percent Inhibition of mouse apolipoprotein B mRNA levels: 28%
[2]
  %INHIB of mouse apolipoprotein B mRNA levels: 89%

## 147506 (antisense eA*eG*eG*eA*eA*dG*dG*dA*dA*d[5mC]*dT*d[5mC]*dT*dT*dG*eA*eT*eA*eT*eT) [compound 147506]
[2]
  %INHIB of mouse apolipoprotein B mRNA levels: 58%

## 147487 (antisense eT*eT*e[5mC]*e[5mC]*e[5mC]*dA*dG*dT*d[5mC]*dA*dG*d[5mC]*dT*dT*dT*eA*eG*eT*eG*eG) [compound 147487]
[2]
  %INHIB of mouse apolipoprotein B mRNA levels: 73%

## 147773 (antisense e[5mC]*eA*eT*e[5mC]*eA*dG*dA*d[5mC]*dG*dT*dG*dA*dT*dG*dT*eT*e[5mC]*e[5mC]*e[5mC]*eT) [compound 147773]
[2]
  %INHIB of mouse apolipoprotein B mRNA levels: 85%

## 147505 (antisense eG*eG*eA*eA*eG*dT*dG*dA*dG*dA*d[5mC]*dT*dT*dT*d[5mC]*eT*eA*eA*eG*e[5mC]) [compound 147505]
[2]
  %INHIB of mouse apolipoprotein B mRNA levels: 76%
